Literature values as cited in patent US20030220416A1, “Curable compositions with antimicrobial properties” (priority 1998, published 2003).
Read-outs that look alike come from different tables or passages of the source.

How the values were obtained:
S. mutans = conditions: MDPB incorporated in experimental composites
bacteria = conditions: MDPB incorporated in experimental composites
[1] = most of the compositions tested

| SMILES | attachment of S. mutans to surfaces of the restorative material (S. mutans) | zone of inhibition by the disk diffusion method (bacteria) | water solubility (distilled water at 20° C.) [ppm] | water solubility (distilled water at 50° C.) [ppm] | release of the triclosan into the surrounding medium [1] [micrograms/ml] |
| --- | --- | --- | --- | --- | --- |
| C=C(C)C(=O)OCCCCCCCCCCCC[n+]1ccccc1.[Br-] [MDPB, methacryloyloxydodecylpyridinium bromide] | reduced | no zone of inhibition was evident |  |  |  |
| Oc1cc(Cl)ccc1Oc1ccc(Cl)cc1Cl [Triclosan, 2,4,4′-trichloro-2′hydroxydiphenyl ether] |  |  | 20 | 20 | 0.02 |
